The results in this text go back to PubChem BioAssay (NCI).

Among the test systems are MDA-MB-231 breast; SF-295 CNS; SK-MEL-5 melanoma; MDA-MB-435; OVCAR-4 ovarian; IGROV1 ovarian; OVCAR-8 ovarian; A549 NSCLC; MCF7 breast; COLO 205 colon; CCRF-CEM leukemia; U251 CNS.
Experiment in all cases: DTP human tumour cell line panel, 48 h

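A five-concentration, 48-hour dose response in 96-well plates underlies each endpoint, interpolated linearly between surrounding concentrations. TGI: concentration producing complete growth inhibition.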 Some results are limits rather than exact numbers.

For the molecule `C=CCN1C(=O)CS/C1=N\NC(=O)CSc1nc2ccccc2c(=O)n1CC`, the TGI in the experiment on MDA-MB-231 breast, in the experiment with SF-295 CNS, in the experiment on SK-MEL-5 melanoma, in the experiment with MDA-MB-435, with OVCAR-4 ovarian and in the experiment with IGROV1 ovarian was above 100 µM each time. Further, the TGI with OVCAR-8 ovarian, with A549 NSCLC, with MCF7 breast, in the experiment on COLO 205 colon, in the experiment on CCRF-CEM leukemia and with U251 CNS was above 100 µM each time.

For `Oc1cccc2ccc(Br)nc12`, the concentration for total growth inhibition (TGI) with MDA-MB-231 breast, with SF-295 CNS, with SK-MEL-5 melanoma, with MDA-MB-435, with OVCAR-4 ovarian and with IGROV1 ovarian was above 100 µM throughout. The TGI with OVCAR-8 ovarian, in the experiment on A549 NSCLC, with MCF7 breast, in the experiment with COLO 205 colon, in the experiment with CCRF-CEM leukemia and in the experiment on U251 CNS was above 100 µM each time.

As to `Cn1c(N)c(/C=C/C(=O)Oc2ccccc2)c(=O)n(C)c1=O`, the total growth inhibition concentration (TGI) in the experiment on MDA-MB-231 breast was above 100 µM; in the experiment with SF-295 CNS it was 93.6 µM; in the experiment on SK-MEL-5 melanoma, above 100 µM; in the experiment with MDA-MB-435, above 100 µM; in the experiment with OVCAR-4 ovarian, above 100 µM; in the experiment on IGROV1 ovarian, above 100 µM. The TGI in the experiment with OVCAR-8 ovarian, in the experiment on A549 NSCLC, in the experiment on MCF7 breast, in the experiment on COLO 205 colon, in the experiment on CCRF-CEM leukemia and in the experiment on U251 CNS was above 100 µM each time.

With `NC(=O)NC(=O)c1cccc(NC(=O)CCl)c1`, the total growth inhibition concentration (TGI) in the experiment with MDA-MB-231 breast turned out to be 8.38 µM; with SF-295 CNS, 7.71 µM; with SK-MEL-5 melanoma it was 2.07 µM; with MDA-MB-435 it was 5.93 µM; with OVCAR-4 ovarian, 25.7 µM; in the experiment with IGROV1 ovarian, 12.7 µM. The TGI in the experiment with OVCAR-8 ovarian is 12.7 µM; in the experiment on A549 NSCLC it was above 28.1 µM; in the experiment on MCF7 breast, 9.32 µM; with COLO 205 colon it was 2.2 µM; in the experiment with CCRF-CEM leukemia, 4.16 µM; in the experiment on U251 CNS it was 2.41 µM.

Turning to `COC1C(=O)N(SC)C1c1ccccc1Cl` (centres undefined), the TGI with MDA-MB-231 breast was 87.3 µM; in the experiment with SF-295 CNS it was above 100 µM; with SK-MEL-5 melanoma, above 100 µM; in the experiment with MDA-MB-435 it was 53.9 µM; in the experiment with OVCAR-4 ovarian it was 30.3 µM; with IGROV1 ovarian, 38.6 µM. The TGI was 39.4 µM with OVCAR-8 ovarian; above 100 µM with A549 NSCLC; 43 µM in the experiment with MCF7 breast; above 100 µM with COLO 205 colon; 35.1 µM in the experiment on CCRF-CEM leukemia; above 100 µM in the experiment with U251 CNS.

For the molecule `CCOC(=O)c1ccc(N(CCOS(=O)(=O)c2ccc(C)cc2)CCOS(=O)(=O)c2ccc(C)cc2)cc1`, the total growth inhibition concentration (TGI) is 86.8 µM in the experiment on MDA-MB-231 breast; above 100 µM with SF-295 CNS; above 100 µM with SK-MEL-5 melanoma; above 100 µM in the experiment on MDA-MB-435; above 100 µM in the experiment with OVCAR-4 ovarian; above 100 µM in the experiment with IGROV1 ovarian. For the same molecule, the TGI in the experiment with OVCAR-8 ovarian was above 100 µM; in the experiment with A549 NSCLC, above 100 µM; with MCF7 breast, above 100 µM; in the experiment on COLO 205 colon, above 100 µM; in the experiment with CCRF-CEM leukemia it was above 100 µM; in the experiment with U251 CNS, 46.6 µM.

As to `CN1N=C(c2ccccc2)c2cc(Cl)ccc2N=C1N/N=C/c1ccc(N(C)C)cc1`, the TGI in the experiment on MDA-MB-231 breast, in the experiment with SF-295 CNS, in the experiment with SK-MEL-5 melanoma, with MDA-MB-435, with OVCAR-4 ovarian and in the experiment with IGROV1 ovarian was above 100 µM in each case. In addition, the total growth inhibition concentration (TGI) in the experiment on OVCAR-8 ovarian, with A549 NSCLC, with MCF7 breast, in the experiment on COLO 205 colon, in the experiment with CCRF-CEM leukemia and in the experiment with U251 CNS was above 100 µM throughout.

`CCOC(=O)c1nc2cc(F)cc(F)c2[nH]c1=O`: the TGI with MDA-MB-231 breast, in the experiment on SF-295 CNS, in the experiment with SK-MEL-5 melanoma, in the experiment on MDA-MB-435, in the experiment on OVCAR-4 ovarian and in the experiment with IGROV1 ovarian was above 100 µM each time. The TGI with OVCAR-8 ovarian, in the experiment with A549 NSCLC, in the experiment with MCF7 breast, with COLO 205 colon, in the experiment with CCRF-CEM leukemia and in the experiment with U251 CNS was above 100 µM throughout.

On to `Cc1ccc(O)c(C(c2cc(C)ccc2O)c2cc([N+](=O)[O-])ccc2O)c1`, for which the total growth inhibition concentration (TGI) was 22.3 µM in the experiment on MDA-MB-231 breast; 36.9 µM in the experiment with SF-295 CNS; above 100 µM with SK-MEL-5 melanoma; 45.3 µM with MDA-MB-435; 28.3 µM with OVCAR-4 ovarian; 24.4 µM in the experiment on IGROV1 ovarian. Moreover, the TGI in the experiment with OVCAR-8 ovarian is 25.5 µM; in the experiment with A549 NSCLC, 31.2 µM; with MCF7 breast, 33.8 µM; with COLO 205 colon it was 45.9 µM; with CCRF-CEM leukemia it was 91 µM; in the experiment with U251 CNS, 46.4 µM.

For `C1=Cc2cccc3occ(c23)C=C1`, the TGI with MDA-MB-231 breast, with SF-295 CNS, in the experiment on SK-MEL-5 melanoma, with MDA-MB-435, with OVCAR-4 ovarian and with IGROV1 ovarian was above 100 µM throughout. Moreover, the total growth inhibition concentration (TGI) in the experiment on OVCAR-8 ovarian was above 100 µM; with A549 NSCLC it was above 100 µM; in the experiment on MCF7 breast, above 100 µM; in the experiment on COLO 205 colon, 90.7 µM; in the experiment with CCRF-CEM leukemia, 49.9 µM; with U251 CNS, above 100 µM.

Consider `COc1nc2c(c(=O)[nH]1)N=C(c1ccc(Cl)cc1)CC(c1ccccc1)N2` (centres undefined), for which the TGI in the experiment with MDA-MB-231 breast was 50.8 µM; in the experiment with SF-295 CNS it was 70.7 µM; with SK-MEL-5 melanoma, 36.8 µM; in the experiment with MDA-MB-435, above 100 µM; in the experiment with OVCAR-4 ovarian, 57.4 µM; in the experiment on IGROV1 ovarian it was above 100 µM. Moreover, the TGI in the experiment on OVCAR-8 ovarian is 60.9 µM; in the experiment with A549 NSCLC, above 100 µM; in the experiment on MCF7 breast it was above 100 µM; with COLO 205 colon, above 100 µM; in the experiment on CCRF-CEM leukemia it was 44.9 µM; in the experiment on U251 CNS it was above 100 µM.

In the case of `CC[C@]1(Cc2ccc(OC)c(OC)c2)C=[N+]([O-])O[C@H](OCc2ccccc2)[C@@H]1OC(C)=O`, the total growth inhibition concentration (TGI) was above 100 µM in the experiment on MDA-MB-231 breast; above 100 µM with SF-295 CNS; above 100 µM with SK-MEL-5 melanoma; above 100 µM in the experiment on MDA-MB-435; 95.6 µM in the experiment with OVCAR-4 ovarian; above 100 µM with IGROV1 ovarian. Also, the TGI in the experiment with OVCAR-8 ovarian was above 100 µM; with A549 NSCLC it was above 100 µM; with MCF7 breast, above 100 µM; with COLO 205 colon, 34.5 µM; in the experiment on CCRF-CEM leukemia it was 55.6 µM; with U251 CNS, above 100 µM.
